Data from BindingDB's records for doi:10.3109/14756366.2010.528415 (Khyber Medical College, 2011).

Molecular target: Urease (Canavalia ensiformis, UniProt P07374)
Assay: Urease Inhibition Assay
Method: Reaction mixtures comprising 25 μL of enzyme (jack bean urease) solution and 55 μL of buffers containing 100 mM urea were incubated with 5 μL of test compounds (0.5 mM concentration) at 30°C for 15 min in 96-well plates. Urease activity was determined by measuring ammonia production using the indophenol method as described by weather burn14. Briefly, 45 μL each phenol reagent (1% w/v phenol and 0.005% w/v sodium nitroprusside) and 70 μL of alkali reagent (0.5% w/v NaOH and0.1% active chloride NaOCl) were added to each well. The increasing absorbance at 630 nm was measured after 50 min, using a microplate reader (Molecular Device). All reactions were performed in triplicate in a final volume of 200 μL.

Urease, sequence (P07374 whole entry): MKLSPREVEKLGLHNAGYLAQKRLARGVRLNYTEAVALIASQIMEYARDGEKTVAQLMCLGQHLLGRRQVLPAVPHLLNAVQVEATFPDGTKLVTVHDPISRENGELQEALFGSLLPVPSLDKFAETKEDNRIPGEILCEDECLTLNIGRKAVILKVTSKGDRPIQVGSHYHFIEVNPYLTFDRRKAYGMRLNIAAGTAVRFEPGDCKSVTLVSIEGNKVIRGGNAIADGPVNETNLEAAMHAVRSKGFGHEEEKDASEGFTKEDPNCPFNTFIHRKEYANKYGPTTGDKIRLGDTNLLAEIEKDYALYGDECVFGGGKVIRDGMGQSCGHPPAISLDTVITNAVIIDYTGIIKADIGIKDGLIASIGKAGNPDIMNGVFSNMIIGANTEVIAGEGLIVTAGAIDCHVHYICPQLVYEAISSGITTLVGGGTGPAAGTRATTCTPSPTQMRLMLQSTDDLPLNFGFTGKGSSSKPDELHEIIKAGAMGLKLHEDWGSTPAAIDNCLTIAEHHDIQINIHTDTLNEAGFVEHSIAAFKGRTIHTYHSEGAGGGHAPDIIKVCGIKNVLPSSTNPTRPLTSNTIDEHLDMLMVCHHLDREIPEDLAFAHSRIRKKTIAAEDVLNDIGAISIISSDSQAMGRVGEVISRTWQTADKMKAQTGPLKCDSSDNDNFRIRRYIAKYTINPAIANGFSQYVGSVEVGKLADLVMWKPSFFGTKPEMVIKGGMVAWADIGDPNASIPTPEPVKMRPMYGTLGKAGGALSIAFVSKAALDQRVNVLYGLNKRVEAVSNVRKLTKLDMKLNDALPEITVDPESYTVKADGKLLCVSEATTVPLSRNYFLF

Compound | IC50 [µM]
CC(C)CCCCc1ccc(O[C@@H]2OC(CO)[C@H](O)[C@@H](O)C2O)cc1 (some centres not stated) [Indigoferin-B (2)] | 29.7
CC(O)CCCCC(=O)c1c(O)cc(O)cc1O (configuration not stated) [Indigoferin-C (3)] | 23.3
